The record followed here is ChEMBL document CHEMBL1156643, “Kempopeptins A and B, serine protease inhibitors with different selectivity profiles from a marine cyanobacterium, Lyngbya sp” (J Nat Prod, 2008).

The structures appear in SMILES notation.

Assay [1] can be described thus: Inhibition of bovine alpha chymotrypsin. Details: species or system Bos taurus.
Assay [2] deals with Pancreatic elastase (Sus scrofa, UniProt P08419+P00772). Nature of the assay: Inhibition of pig pancreatic elastase. In kind it is protein assay.
Assay [3] can be described thus: Inhibition of pig pancreatic trypsin. Details: species or system Sus scrofa.

For `C/C=C1\NC(=O)[C@@H](NC(=O)[C@H](CCC(N)=O)NC(=O)CCC)[C@@H](C)OC(=O)[C@H](C(C)C)NC(=O)[C@H](Cc2ccc(O)cc2)N(C)C(=O)[C@H](Cc2ccccc2)N2C(=O)[C@H](CC[C@H]2O)NC1=O` [SOMAMIDE B], the IC50 (in general, the midpoint of a concentration-inhibition curve) in assay [1] was 0.0095 µM; in assay [2], 4.2 µM; in assay [3], greater than 30 µM.

Turning to `CC(=O)N1CCC[C@H]1C(=O)N[C@H](C(=O)N[C@@H]1C(=O)N[C@@H](CC(C)C)C(=O)N[C@H]2CC[C@@H](O)N(C2=O)[C@@H](Cc2ccccc2)C(=O)N(C)[C@@H](Cc2ccc(O)cc2)C(=O)N[C@@H](C(C)C)C(=O)O[C@@H]1C)[C@@H](C)O` [KEMPOPEPTIN A], the IC50 was 0.32 µM in assay [1], 2.6 µM in assay [2] and greater than 67 µM in assay [3].

In assay [3], `C/C=C1\NC(=O)[C@@H](NC(=O)[C@H](CCC(N)=O)NC(=O)CCCCC)[C@@H](C)OC(=O)[C@H](C(C)C)NC(=O)[C@H](Cc2ccc(O)cc2)N(C)C(=O)[C@H](Cc2ccccc2)N2C(=O)[C@H](CC[C@H]2O)NC1=O` [LYNGBYASTATIN 7] gave an IC50 greater than 30 µM.

As to `CCCC(=O)N[C@H](C(=O)N[C@@H]1C(=O)N[C@@H](CCCCN)C(=O)N[C@H]2CC[C@@H](O)N(C2=O)[C@@H]([C@@H](C)CC)C(=O)N(C)[C@@H](Cc2ccc(OC)c(Br)c2)C(=O)N[C@@H](C(C)C)C(=O)O[C@@H]1C)C(C)C` [KEMPOPEPTIN B], the IC50 is greater than 67 µM in assay [1], greater than 67 µM in assay [2] and 8.4 µM in assay [3].
